In patent publication US5187305A, “S-nitroso-N-alkonoylpenicillamines” (Glaxo Inc., priority 1990, dated 1993):

Experiments:
[1] = test system: RAT AORTA; assay: Aorta Vasodilation Assay, rat aorta rings (endothelium removed, phenylephrine-contracted); parameters: species or system male Sprague-Dawley rats; conditions: 20% O2, without methylene blue; for RELATIVE POTENCY: compared with nitroprusside; for IC50: read-out: IC50 (relaxation)
From the text: (§1) The thoracic aortas removed from euthanized male Sprague-Dawley rats (200-300 g) and male New Zealand, white rabbits (1.5-3.0 kg) are cleaned of adherent connective tissue and cut into rings 3 to 5 mm in length. Endothelium is removed by rolling the rings on moist filter paper. Rings are suspended in an organ chamber containing a physiological salt solution of (mM): NaCl, 118.4; KCl, 4.7; MgSO4.H2 O, 1.2; CaCl2.2H2 O, 2.5; KH2 PO4, 1.2; NaHCO3, 25.0; and dextrose, 11.1. The bathing solution is maintained at 37° C. and half of the tissues are aerated with 95% O2 /5% CO2 and half are aerated with 20% O2 /5% CO2 /75% N2. Tissues are mounted to isometric force displacement transducers and responses are recorded on a polygraph.
(§2) All rings are gradually stretched (over a 120 min. period) to a basal resting tension of 2 g (rat) and 4 g (rabbit), which is maintained throughout the assay. During the basal tension adjustment period, the rings are exposed to KCl (40 mM) two to three times to verify tissue contractility. During this period, the effectiveness of endothelium removal is confirmed by the absence of the characteristic relaxation seen with acetylcholine (1×10^-6 M) in endothelium-intact (but not endothelium-removed) rings contracted with phenylephrine (1×10^-7 M).
(§3) Methylene blue (1×10^-5 M) is added to half of the tissues aerated at 20% O2 and 95% O2 to inhibit basal cGMP accumulation. Phenylephrine (1×10^-7 M) is then added and the rings are allowed to obtain a stable contractile response after which time, SOD (100 U/mL) is added to the tissues. The test compound is then added in a cumulative fashion. After the stabilization of the response to the last concentration of the test compound, sodium nitroprusside (1×10^-4 M) is added to induce complete relaxation.

[2] = test system: RABBIT AORTA; assay: Aorta Vasodilation Assay, rabbit aorta rings (endothelium removed, phenylephrine-contracted); parameters: species or system male New Zealand white rabbits; conditions: 20% O2, without methylene blue; for RELATIVE POTENCY: compared with nitroprusside; for IC50: Oryctolagus cuniculus, read-out: IC50 (relaxation)
From the text: as §1, §2, §3

[3] = compared with glyceryl trinitrate; cited from earlier work
[4] = among nitrosothiols; cited from earlier work
[5] = orally (including sublingually), rectally, vaginally, nasally or transdermally; cited from earlier work

CC(=O)N[C@@H](C(=O)Oc1ccccc1)C(C)(C)SN=O [(I), R^1 = PHENYL R^2 = METHYL, N-Acetyl-3-(nitrosothio)-D-valine phenyl ester]
RELATIVE POTENCY [1]: 3.04 | IC50 [1]: 7.6 nM | RELATIVE POTENCY [2]: 3.25 | IC50 [2]: 65 nM

O=[N+]([O-])OCC(CO[N+](=O)[O-])O[N+](=O)[O-] [NITROGLYCERIN, glyceryl trinitrate]
RELATIVE POTENCY [1]: 3.76 | IC50 [1]: 9.4 nM | RELATIVE POTENCY [2]: 1.15 | IC50 [2]: 23 nM

CC(=O)N[C@@H](C(=O)O)C(C)(C)SN=O [SNAP, N-acetyl-3-(nitrosothio)-D-valine]
Tolerance [3]: much less of a problem than tolerance of gyceryl trinitrate | RELATIVE POTENCY [1]: 56 | IC50 [1]: 140 nM | Stability [4]: one of the most stable nitrosothiols known | RELATIVE POTENCY [2]: 8.0 | IC50 [2]: 160 nM | Absorption [5]: poorly absorbed by these routes
